Values quoted from earlier work, collected in US10201174B2, “Process for reducing contaminating Michael acceptor levels in oxycodone and other compositions” (Controlled Chemicals, Inc., priority 2005, dated 2019).

Conditions: thiol group ionisation, aqueous

Row | Structure (SMILES) | pKSH / pK of the thiol-containing compound
1 | O=C(O)c1cc(S)ccc1[N+](=O)[O-] [5-mercapto-2-nitro-benzoic acid] | 4.8
2 | O=C([O-])CS.[Na+] [sodium thioglycolate] | 10.3
